In BindingDB's records for doi:10.1016/0014-2999(84)90478-3 (Mayo Clinic, 1984) one finds Ki data, which are given here for twelve compounds.

Test [1] addresses T1, Alpha-2A adrenergic receptor (Homo sapiens, UniProt P08913).
T1 sequence (P08913 whole entry): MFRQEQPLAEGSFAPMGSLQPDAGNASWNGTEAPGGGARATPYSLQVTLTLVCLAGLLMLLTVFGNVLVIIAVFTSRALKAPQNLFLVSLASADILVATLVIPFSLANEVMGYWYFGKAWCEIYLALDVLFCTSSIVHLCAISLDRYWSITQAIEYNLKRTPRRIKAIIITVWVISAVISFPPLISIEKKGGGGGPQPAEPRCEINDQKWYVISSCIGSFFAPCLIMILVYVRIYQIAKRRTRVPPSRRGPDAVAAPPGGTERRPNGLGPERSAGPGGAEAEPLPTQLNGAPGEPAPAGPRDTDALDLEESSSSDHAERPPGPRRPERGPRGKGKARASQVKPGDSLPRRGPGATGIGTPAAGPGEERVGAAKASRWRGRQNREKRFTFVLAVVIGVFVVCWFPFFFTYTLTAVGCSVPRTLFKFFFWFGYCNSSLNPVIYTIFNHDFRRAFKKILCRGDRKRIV

For test [2], the target named is T2, Alpha-1A adrenergic receptor (Homo sapiens, UniProt P35348).
T2 sequence (P35348 whole entry): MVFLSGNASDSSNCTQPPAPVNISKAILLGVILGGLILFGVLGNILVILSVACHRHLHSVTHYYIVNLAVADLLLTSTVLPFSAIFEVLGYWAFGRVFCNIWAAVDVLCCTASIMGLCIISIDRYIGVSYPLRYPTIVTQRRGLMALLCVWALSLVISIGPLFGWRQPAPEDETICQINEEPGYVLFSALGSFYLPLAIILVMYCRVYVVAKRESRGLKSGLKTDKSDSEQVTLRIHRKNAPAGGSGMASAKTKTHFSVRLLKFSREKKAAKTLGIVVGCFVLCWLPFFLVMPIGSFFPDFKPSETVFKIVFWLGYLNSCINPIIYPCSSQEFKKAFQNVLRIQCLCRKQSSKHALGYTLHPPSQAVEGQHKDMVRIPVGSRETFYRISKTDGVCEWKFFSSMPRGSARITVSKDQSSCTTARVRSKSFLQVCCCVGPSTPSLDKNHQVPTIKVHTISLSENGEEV

The target in test [3] is D(2) dopamine receptor (Homo sapiens, UniProt P14416).
Chain of D(2) dopamine receptor (P14416 whole entry): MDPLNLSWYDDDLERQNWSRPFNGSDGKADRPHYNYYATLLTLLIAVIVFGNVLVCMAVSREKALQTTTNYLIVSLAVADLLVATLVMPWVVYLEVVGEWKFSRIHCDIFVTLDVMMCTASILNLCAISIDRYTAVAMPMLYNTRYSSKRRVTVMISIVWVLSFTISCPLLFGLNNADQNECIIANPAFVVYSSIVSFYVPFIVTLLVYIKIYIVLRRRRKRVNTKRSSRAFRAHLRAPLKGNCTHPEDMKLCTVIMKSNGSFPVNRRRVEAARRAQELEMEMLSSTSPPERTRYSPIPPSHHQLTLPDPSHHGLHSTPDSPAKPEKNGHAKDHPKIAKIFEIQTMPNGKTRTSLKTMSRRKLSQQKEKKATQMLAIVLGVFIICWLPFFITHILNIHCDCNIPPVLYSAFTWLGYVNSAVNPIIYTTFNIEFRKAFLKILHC

Structures can show the parent of a compound that is named as a salt.

`O=C(CCCN1CCC2(CC1)C(=O)NCN2c1ccccc1)c1ccc(F)cc1` [8-[4-(4-fluorophenyl)-4-oxidanylidene-butyl]-1-phenyl-1,3,8-triazaspiro[4.5]decan-4-one]: the Ki in test [1] is 660 nM; in test [2], 1.2 nM.
For the compound `CN(C)CC/C=C1\c2ccccc2Sc2ccc(Cl)cc21`, the Ki in test [3] came to 8 nM.
For `CC(C)(C)[C@]1(O)CCN2C[C@H]3c4ccccc4CCc4cccc(c43)[C@@H]2C1`, the values for the Ki in test [1] and in test [2] were 310 nM and 56 nM, respectively.
In turn, `CN(C)CCCN1c2ccccc2Sc2ccc(C(F)(F)F)cc21` [TRIFLUPROMAZINE] registered an inhibition constant Ki in test [3] of 2.8 nM.
Regarding `CN1CCN(CC/C=C2/c3ccccc3Sc3ccc(S(=O)(=O)N(C)C)cc32)CC1` [MLS000028463], the Ki was 0.45 nM in test [3], 200 nM in test [1] and 11 nM in test [2].
Consider `CCc1c(C)[nH]c2c1C(=O)C(CN1CCOCC1)CC2` (stereo unspecified) [Moban], for which, in test [3], the Ki was found to be 120 nM.
Consider `CN1CCCCC1CCN1c2ccccc2Sc2ccc([S+](C)[O-])cc21` (stereo unspecified), for which the values for the Ki in test [3], in test [1] and in test [2] were 19 nM, 1600 nM and 2 nM, respectively.
Consider `CN1CCN(CCCN2c3ccccc3Sc3ccc(C(F)(F)F)cc32)CC1`, for which the Ki in test [3] turned out to be 2.6 nM.
On to `CN(C)CCCN1c2ccccc2Sc2ccccc21`, for which the results for the Ki in test [3], in test [1] and in test [2] were 160 nM, 900 nM and 6 nM, respectively.
Regarding `CN1CCN(C2=Nc3ccccc3Oc3ccc(Cl)cc32)CC1` [13-chloro-10-(4-methylpiperazin-1-yl)-2-oxa-9-azatricyclo[9.4.0.0^{3,8}]pentadeca-1(11),3,5,7,9,12,14-heptaene], the Ki in test [2] was 28 nM.
Regarding `OCCN1CCN(CCCN2c3ccccc3Sc3ccc(C(F)(F)F)cc32)CC1` [2-[4-[3-[2-(trifluoromethyl)phenothiazin-10-yl]propyl]piperazin-1-yl]ethanol;hydrochloride], the Ki in test [1] turned out to be […]; in test [2], […].
Regarding `OCCN1CCN(CCCN2c3ccccc3Sc3ccc(Cl)cc32)CC1` [4-[3-(2-chlorophenothiazin-10-yl)propyl]-1-piperazineethanol], in test [3], the Ki was 1.4 nM.
